In ChEMBL document CHEMBL5352500, “HSF1 Pathway Inhibitor Clinical Candidate (CCT361814/NXP800) Developed from a Phenotypic Screen as a Potential Treatment for Refractory Ovarian Cancer and Other Malignancies” (J Med Chem, 2023):
Active and inactive are the calls of the source. The rule behind the calls is not given here.

Assays:
[1] = Reversal of doxorubicin resistance in human doxorubicin resistant CH1 cells assessed as doxorubicin GI50 incubated for 96 hrs by resazurin dye based celltiter-blue cell viability assay (reference value: 310 nM); type: functional
Mus musculus = species: Mus musculus; conditions: dose 50.0 mg/kg, route po
[2] = Unbound AUC (0 to 6 hrs) in BALB/c mouse at 5 mg/kg, po or 5 mg/kg, iv measured for 24 hrs by LC-MS/MS analysis; type: ADME, organism-based; conditions: in vivo
[3] = Fraction unbound in BALB/c mouse blood at 5 mg/kg, po or 5 mg/kg, iv measured for 24 hrs by LC-MS/MS analysis; type: ADME, organism-based
[4] = AUC (0 to 6 hrs) in BALB/c mouse at 5 mg/kg, po measured for 24 hrs by LC-ESI-MS/MS analysis; type: ADME, organism-based; parameters: time 24 hrs, dose 5 mg/kg, route po; conditions: in vivo
[5] = Unbound AUC (0 to 6 hrs) in BALB/c mouse at 5 mg/kg, po or 1 mg/kg, iv measured for 24 hrs by LC-MS/MS analysis; type: ADME, organism-based; conditions: in vivo
RMG-I = assay: Antiproliferative activity against human RMG-I cell line assessed as cell growth inhibition measured after 96 hrs by resazurin dye based celltiter-blue viability assay; type: functional
OVCAR-3 = assay: Antiproliferative activity against human OVCAR-3 cells assessed as cell growth inhibition measured after 96 hrs by resazurin dye based celltiter-blue viability assay; type: functional
physchem = conditions: buffer, pH 7.4
Caov-3 cell line = assay: Antiproliferative activity against human Caov-3 cells assessed as cell growth inhibition measured after 96 hrs by resazurin dye based celltiter-blue viability assay; type: functional
IGROV-1 = assay: Antiproliferative activity against human IGROV-1 cells assessed as cell growth inhibition measured after 96 hrs by resazurin dye based celltiter-blue viability assay; type: functional
PA-1 = assay: Antiproliferative activity against human PA-1 cells assessed as cell growth inhibition measured after 96 hrs by resazurin dye based celltiter-blue viability assay; type: functional
CH1 = assay: Antiproliferative activity against human CH1 cells assessed as cell growth inhibition measured after 96 hrs by resazurin dye based celltiter-blue viability assay; type: functional
OVCAR-5 = assay: Antiproliferative activity against human OVCAR-5 cells assessed as cell growth inhibition measured after 96 hrs by resazurin dye based celltiter-blue viability assay; type: functional
OVCAR-8 = assay: Antiproliferative activity against human OVCAR-8 cells assessed as cell growth inhibition measured after 96 hrs by resazurin dye based celltiter-blue viability assay; type: functional
[6] = Stability in pooled mouse plasma assessed as drug degradation at 1 uM; type: ADME, cell-free

In the case of COc1ccc(CCN(C)CCCC(C#N)(c2ccc(OC)c(OC)c2)C(C)C)cc1OC (configuration not stated), the GI50 [1] is reported as 1.9 nM.
For CCN1CCN(Cc2ccc3cc(C(=O)Nc4cc(NC(=O)c5ccc6c(c5)OCCO6)ccc4F)ccc3n2)CC1, the inhibition (Mus musculus) was “Active”.
With CCN1CCN(Cc2ccc3cc(C(=O)Nc4cc(NC(=O)c5ccc6c(c5)OCCO6)ccc4Cl)ccc3n2)CC1 the fAUC [2] was 0.02 µM·h, the fraction unbound at 24 h [3] was 0.005 and the AUC [4] was 3.9 µM·h.
CC(C)N1CCN(Cc2ccc3cc(C(=O)Nc4cc(NC(=O)c5ccc6c(c5)OCCO6)ccc4Cl)ccc3n2)CC1 gave a fAUC [5] of 0.026 µM·h.
Cc1ccc(NC(=O)c2ccc3c(c2)OCCO3)cc1NC(=O)c1ccc2nc(OCCN3CCCC3)ccc2c1 showed a GI50 (RMG-I) of 50.1 nM, a GI50 (OVCAR-3) of 50.1 nM and a logD (physchem) of 2.1. It also gave a GI50 (Caov-3 cell line) of 50.1 nM, a GI50 (IGROV-1) of 50.1 nM and a GI50 (PA-1) of 50.1 nM. It also gave a GI50 (CH1) of 50.1 nM, a GI50 (OVCAR-5) of 50.1 nM and a GI50 (OVCAR-8) of 50.1 nM. The Stability [6] was “Stable”.
Cc1ccc(NC(=O)c2ccc3c(c2)OCCO3)cc1NC(=O)c1ccc2nc(OCCN3CCCCC3)ccc2c1 gave a fAUC [2] of 0.012 µM·h.
